Like-named read-outs stand apart in the source and are kept apart here.
Experiments:
HL-60 cells = experiment: HL-60 differentiation (nitro blue tetrazolium reduction assay); type: cell-based, human; details: FIG. 2; for EC50: read-out: EC50, HL-60 cell differentiation
Procedure: The study drugs were dissolved in ethanol and the concentrations determined using UV spectrophotometry. Serial dilutions were prepared so that a range of drug concentrations could be tested without changing the final concentration of ethanol (≦0.2%) present in the cell cultures.
Human promyelocytic leukemia (HL60) cells were grown in RPMI-1640 medium containing 10% fetal bovine serum. The cells were incubated at 37° C. in the presence of 5% CO2.
HL60 cells were plated at 1.2×10^5 cells/ml. Eighteen hours after plating, cells in duplicate were treated with drug. Four days later, the cells were harvested and a nitro blue tetrazolium reduction assay was performed (Collins et al., 1979; J. Exp. Med. 149:969-974). The percentage of differentiated cells was determined by counting a total of 200 cells and recording the number that contained intracellular black-blue formazan deposits. Verification of differentiation to monocytic cells was determined by measuring phagocytic activity (data not shown).

[1] = system: 24-hydroxylase (24Ohase) gene promoter; experiment: In vitro transcription assay, luciferase reporter in ROS 17/2.8 (bone) cells; type: cell-based; details: FIG. 3; for EC50: ROS 17/2.8 cells, read-out: EC50, transcriptional activity in bone cells
Procedure: Transcription activity was measured in ROS 17/2.8 (bone) cells that were stably transfected with a 24-hydroxylase (24Ohase) gene promoter upstream of a luciferase reporter gene (Arbour et al., 1998). Cells were given a range of doses. Sixteen hours after dosing the cells were harvested and luciferase activities were measured using a luminometer.
RLU=Relative Luciferase Units.

[2] = Bone calcium mobilization (serum calcium) in vitamin D-deficient rats; type: in vivo, rat; details: FIG. 4; for bone calcium mobilization: ip
Procedure: (§1) Male, weanling Sprague-Dawley rats were placed on Diet 11 (0.47% Ca) diet+AEK for one week followed by Diet 11 (0.02% Ca)+AEK for 3 weeks. The rats were then switched to a diet containing 0.47% Ca for one week followed by two weeks on a diet containing 0.02% Ca. Dose administration began during the last week on 0.02% calcium diet. Four consecutive ip doses were given approximately 24 hours apart. Twenty-four hours after the last dose, blood was collected from the severed neck and the concentration of serum calcium determined as a measure of bone calcium mobilization. The first 10 cm of the intestine was also collected for intestinal calcium transport analysis using the everted gut sac method.

[3] = Intestinal calcium transport, everted gut sac method, in vitamin D-deficient rats; type: in vivo, rat; details: FIG. 5; for intestinal calcium transport: everted gut sac
Procedure: as §1

[4] = biological target: T1, full-length recombinant rat vitamin D receptor (Rattus norvegicus, UniProt P13053); experiment: Vitamin D receptor binding, competition with [3H]-1,25(OH)2D3; details: FIG. 1
T1 construct: Full-length recombinant rat receptor was expressed in E. coli BL21 (DE3) Codon Plus RIL cells; His tag (C); made in house; host or cells: E. coli BL21 (DE3) Codon Plus RIL
T1 sequence (P13053 1-423): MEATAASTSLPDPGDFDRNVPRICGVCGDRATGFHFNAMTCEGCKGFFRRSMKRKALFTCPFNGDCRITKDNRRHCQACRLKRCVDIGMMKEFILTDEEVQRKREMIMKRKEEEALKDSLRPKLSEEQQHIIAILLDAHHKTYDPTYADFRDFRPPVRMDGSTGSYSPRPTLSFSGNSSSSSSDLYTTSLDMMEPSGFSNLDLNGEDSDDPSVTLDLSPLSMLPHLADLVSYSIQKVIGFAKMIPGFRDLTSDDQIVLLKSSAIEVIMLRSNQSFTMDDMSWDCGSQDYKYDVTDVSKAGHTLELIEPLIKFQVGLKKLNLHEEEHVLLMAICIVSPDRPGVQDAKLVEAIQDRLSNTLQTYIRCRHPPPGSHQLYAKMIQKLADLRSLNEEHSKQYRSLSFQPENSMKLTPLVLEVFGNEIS
Procedure: Full-length recombinant rat receptor was expressed in E. coli BL21 (DE3) Codon Plus RIL cells and purified to homogeneity using two different column chromatography systems. The first system was a nickel affinity resin that utilizes the C-terminal histidine tag on this protein. The protein that was eluted from this resin was further purified using ion exchange chromatography (S-Sepharose Fast Flow). Aliquots of the purified protein were quick frozen in liquid nitrogen and stored at −80° C. until use. For use in binding assays, the protein was diluted in TEDK50 (50 mM Tris, 1.5 mM EDTA, pH7.4, 5 mM DTT, 150 mM KCl) with 0.1% Chaps detergent. The receptor protein and ligand concentration were optimized such that no more than 20% of the added radiolabeled ligand was bound to the receptor.
Radiolabeled and unlabeled ligands were added to 100 mcl of the diluted protein at a final ethanol concentration of ≦10%, mixed and incubated overnight on ice to reach binding equilibrium. The following day, 100 mcl of hydroxylapatite slurry (50%) was added to each tube and mixed at 10-minute intervals for 30 minutes. The hydroxylapaptite was collected by centrifugation and then washed three times with Tris-EDTA buffer (50 mM Tris, 1.5 mM EDTA, pH 7.4) containing 0.5% Titron X-100. […] Total binding was determined from the tubes containing only radiolabeled ligand.

| Ki ([4]; full-length recombinant rat VDR) [nM] | binding to the receptor compared to 1,25-(OH)2D3 ([4]; in words) | EC50 (HL-60 cells; Homo sapiens, HL-60) [nM] | Compound | EC50 (HL-60 cells) [nM] | EC50 [1] [nM] | serum calcium levels ([2]; all dosages, rats on low calcium diet (0.02%)) | intestinal calcium transport ([3]; 260 pmol/day) | potency on HL-60 cell differentiation compared to 1,25(OH)2D3 (HL-60 cells; in words) | transcriptional activity in bone cells compared to 1α,25-dihydroxyvitamin D3 ([1]; in words) | bone calcium mobilization ([2]; 260 pmol/day for 4 consecutive days, rats on low calcium diet (0.02%)) | bone calcium mobilization ([2]; 7020 pmol/day, rats on low calcium diet (0.02%)) | bone calcium mobilization activity compared to 1,25(OH)2D3 ([2]; in words, overall) | intestinal calcium transport ([3]; 7020 pmol/day) | intestinal calcium transport activity compared to 1,25(OH)2D3 ([3]; in words, overall) |
| --- | --- | --- | --- | --- | --- | --- | --- | --- | --- | --- | --- | --- | --- | --- |
|  |  |  | C=C1/C(=C\C=C2/CCC[C@]3(C)[C@@H]([C@H](C)CCCC(C)(C)O)CC[C@@H]23)C[C@@H](O)C[C@@H]1O [1,25(OH)2D3, 1α,25-dihydroxyvitamin D3, reference compound] | 2 | 0.2 | increased serum calcium levels at all dosages | promotes a significant increase |  |  |  |  |  |  |  |
| 0.3 | bound equally to the receptor | 1 | C=C1[C@H](O)CC(=C/C=C2\CCC[C@]3(C)[C@@H]([C@@H](C)/C=C/C[C@H](C)O)CC[C@@H]23)C[C@H]1O [SS-22, 2-methylene-(20S,25S)-19,27-dinor-(22E)-1α,25-dihydroxyvitamin D3] |  | 0.1 |  | promotes intestinal calcium transport only slightly | as potent as 1,25(OH)2D3 | about the same transcriptional activity | did not result in mobilization of bone calcium | without any substantial effect | very little bone calcium mobilization activity | significant intestinal calcium transport activity was recorded | very little activity |

Reference: patent publication US8114859B2, “2-methylene-(20S,25S)-19,27-dinor-(22E)-vitamin D analogs” (Wisconsin Alumni Research Foundation, priority 2006, dated 2012)
